Measurements reported in patent US20100174065A1, “COMPOUNDS” (GLAXO GROUP LIMITED, priority 2007, published 2010).
pEC50: −log10 of the molar value. Structures can show the parent of a compound that is named as a salt.

Tests used:
[1] = tested on: circulating lymphocytes; settings: animals and man; cited from earlier work
[2] = clinical studies, first 24 hours of treatment; cited from earlier work
[3] = target: T1, human S1P1 receptor (Homo sapiens, UniProt P21453); assay: S1P1 GTPγS assay; assay type: biochemical; settings: agonist activity, [35S]-GTPγS binding, human S1P1 rat hepatoma membranes
T1 construct: expressed in transfected cells; membranes
T1 sequence (P21453 whole entry): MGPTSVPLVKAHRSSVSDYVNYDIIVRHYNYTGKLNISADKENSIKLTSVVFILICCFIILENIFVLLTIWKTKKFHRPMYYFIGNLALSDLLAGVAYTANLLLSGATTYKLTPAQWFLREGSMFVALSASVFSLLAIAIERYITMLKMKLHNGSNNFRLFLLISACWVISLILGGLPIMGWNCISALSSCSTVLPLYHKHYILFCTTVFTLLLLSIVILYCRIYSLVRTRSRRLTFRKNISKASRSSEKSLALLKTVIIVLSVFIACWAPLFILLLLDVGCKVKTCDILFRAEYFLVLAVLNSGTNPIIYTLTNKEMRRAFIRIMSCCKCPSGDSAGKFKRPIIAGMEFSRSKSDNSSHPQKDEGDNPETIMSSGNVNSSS
Method: (§1) For membrane preparations all steps were performed at 4° C. Rat hepatoma cells stably expressing the human S1P1 receptor or Rat Basophilic Leukaemia cells (RBL) stably expressing human S1P3 receptor were grown to 80% confluency before being harvested into 10 ml Phospho-Buffered Saline (PBS) and centrifuged at 1200 rpm for 5 minutes. After removal of the supernatant, the pellet was re-suspended and cells were homogenised within a glass Waring blender for 2 bursts of 15 secs in 200 mls of buffer (50 mM HEPES, 1 mM leupeptin, 25 μg/ml bacitracin, 1 mM EDTA, 1 mM PMSF, 2 μM pepstatin A). The blender was plunged into ice for 5 mins after the first burst and 10-40 mins after the final burst to allow foam to dissipate. The material was then spun at 500 g for 20 mins and the supernatant spun for 36 mins at 48,000 g. The pellet was resuspended in the same buffer as above but without PMSF and pepstatin A. The material was then forced through a 0.6 mm needle, made up to the required volume, (usually ×4 the volume of the original cell pellet), aliquoted and stored frozen at −80° C.
as §1, with “All” for “For membrane preparations all”, “Cells” for “Rat hepatoma cells stably expressing the human S1P1 receptor or Rat Basophilic Leukaemia cells (RBL) stably expressing human S1P3 receptor were grown to 80% confluency before being harvested into 10 ml Phospho-Buffered Saline (PBS) and centrifuged at 1200 rpm for 5 minutes. After removal of the supernatant, the pellet was re-suspended and cells”
Human S1P1 rat hepatoma membranes (1.5 μg/well) were adhered to a wheatgerm agglutinin (WGA)-coated scintillation proximity assay (SPA) beads (0.125 mg/well) in assay buffer (HEPES 20 mM, MgCl2 10 mM, NaCl 100 mM and pH adjusted to 7.4 using KOH 5M, GDP 10 μM FAC (final assay concentration) and saponin 90 μg/ml FAC was also added).
After 30 minutes pre-coupling on ice the bead and membrane suspension was dispensed into a white Greiner polypropylene LV384-well plate ([…]), containing 0.1 μl of the compound. 5 μl/well [^355]-GTPγS (0.5 nM final radioligand conc) made up in assay buffer was then added to agonist plates. The final assay cocktail (10.1 μl) was then centrifuged at 1000 rpm for 5 minutes then read immediately on a Viewlux reader.
All test compounds were dissolved in DMSO at a concentration of 10 mM and were prepared in 100% DMSO using a 1 in 4 dilution step to provide 11 point dose response curves. The dilutions were transferred to the assay plates ensuring that the DMSO concentration was constant across the plate for all assays.
All data was normalized to the mean of 16 high and 16 low control wells on each plate. A four parameter curve fit was then applied.
S1P1 expressing RH7777 membranes (1.5 μg/well) membranes (1.5 μg/well) were homogenised by passing through a 23G needle. These were then adhered to WGA-coated SPA beads (0.125 mg/well) in assay buffer (HEPES 20 mM, MgCl2 10 mM, NaCl 100 mM and pH adjusted to 7.4 using KOH 5M). GDP 10 μM FAC and saponin 90 μg/ml FAC were also added
After 30 minutes precoupling on ice, the bead and membrane suspension was dispensed into white Greiner polypropylene LV 384-well plates (5 μl/well), containing 0.1 μl of compound. 5 μl/well [^35S]-GTPγS (0.5 nM for S1P1 or 0.3 nM for S1P3 final radioligand concentration) made in assay buffer was then added to the plates. The final assay cocktail (10.1 μl) was then sealed, spun on a centrifuge, then read immediately on a Viewlux instrument.

| Compound | effect on circulating lymphocytes [1] | bradycardia on treatment [2] | pEC50 [3] |
| --- | --- | --- | --- |
| CCCCCCCCc1ccc(CCC(N)(CO)CO)cc1 [FTY720] | reduce circulating lymphocytes | results in bradycardia |  |
| CC(C)Oc1ccc(-c2nc(-c3ccc4c(c3)CCNCC4)no2)cc1C#N [Example 18, 2-[(1-Methylethyl)oxy]-5-[3-(2,3,4,5-tetrahydro-1H-3-benzazepin-7-yl)-1,2,4-oxadiazol-5-yl]benzonitrile hydrochloride] |  |  | > 7.00 |
| CC(C)Oc1ccc(-c2nc(-c3ccc4c(c3)CCN(CC(=O)O)CC4)no2)cc1Cl [Example 22, [7-(5-{3-Chloro-4-[(1-methylethyl)oxy]phenyl}-1,2,4-oxadiazol-3-yl)-1,2,4,5-tetrahydro-3H-3-benzazepin-3-yl]acetic acid] |  |  | > 7.00 |
| CC(C)Oc1ccc(-c2nc(-c3cccc4c3OCCN(CCC(=O)O)C4)no2)cc1Cl [Example 47, 3-[9-(5-{3-Chloro-4-[(1-methylethyl)oxy]phenyl}-1,2,4-oxadiazol-3-yl)-2,3-dihydro-1,4-benzoxazepin-4(5H)-yl]propanoic acid] |  |  | > 7.00 |
| CC(C)Oc1ccc(-c2nc(-c3ccc4c(c3)CNCCO4)no2)cc1C#N [Example 35, 2-[(1-Methylethyl)oxy]-5-[3-(2,3,4,5-tetrahydro-1,4-benzoxazepin-7-yl)-1,2,4-oxadiazol-5-yl]benzonitrile hydrochloride] |  |  | > 7.00 |
